{"source": "paper PMC7400207", "about": "“It Takes Two: Dimerization Is Essential for the Broad-Spectrum Predatory and Defensive Activities of the Venom Peptide Mp1a from the Jack Jumper Ant Myrmecia pilosula” (Biomedicines, 2020)", "system": "Haemonchus contortus", "test": "microbe, parasite or virus in culture", "format": "cell-based", "conditions": "Haemonchus contortus, 144 h, read-out: Anthelmintic Activity (IC50), inhibition of larval development", "procedure": "Sheep were infected with H. contortus Kirby isolate (field isolate from the University of New England Kirby Research Farm in 1986; susceptible to all commercial anthelmintics) and housed at the Commonwealth Scientific and Industrial Research Organisation (CSIRO) FD McMaster Laboratory, Armidale, NSW. All animal procedures were approved by the FD McMaster Animal Ethics Committee, CSIRO (Approval Number AEC 17/12, approval date 15.6.2017). Eggs were prepared from overnight fecal collection as described. In brief, feces were filtered through mesh filters, settled, and supernatant removed by vacuum. Eggs were recovered by density centrifugation using 10 and 25% (w/v) sucrose solutions, centrifuged at 650× g for 7 min. Eggs were recovered from the interface of the two sucrose layers, rinsed with distilled water, sterilized with bleach, rinsed again, and diluted to 4500 eggs/mL. Tylosin tartrate (800 μg/mL) and amphotericin B (25.0 μg/mL) were added, and eggs were used immediately for larval development assays.\nAssays were conducted using 96-well microtitre plates, with each well containing 50 μL of 2% agar, 20 μL of egg solution and 20 μL of peptide solution in water. The commercial anthelmintic levamisole (Sigma Aldrich) was used as a positive control (final 1% v/v). Negative controls contained equivalent volumes of water or DMSO (final 1% v/v). Plates were incubated at 26 °C for six days. After 24 h, each well was fed with 10 μL of a nutrient solution containing Escherichia coli XL1-Blue1 (grown overnight at 37 °C) and growth medium. The growth medium consisted of yeast extract (1% w/v), Earle’s salt solution (10% v/v), saline solution (0.9% NaCl, w/v), and sodium bicarbonate (1 mM) in Luria-Bertani medium (LB). Larvae were killed and stained with Lugol’s iodine solution after six days. Larvae that had developed to the infective L3 stage were counted, and the numbers in treated assay wells were expressed as a percentage of the number of infective L3 stage larvae in multiple control wells. Concentrations that caused 50% inhibition (IC50 values) were calculated from three experiments of duplicate assays.", "data": [{"molecule": "c1ccc([C@H]2CN3CCSC3=N2)cc1", "note": "[levamisole, reference compound]", "values": [{"measurement": "IC50", "value": 680, "unit": "nM"}]}]}
